# Measurements published in ChEMBL document CHEMBL2202954, “The effect of PLC-γ2 inhibitors on the growth of human tumour cells” (2012).
# How the values were obtained:
# Format in all cases: functional
# CCRF-CEM = test: Cytotoxicity against human CCRF-CEM cells assessed as cellular growth at 10 uM by SRB assay
# SK-MEL-5 = test: Cytotoxicity against human SK-MEL-5 cells assessed as cellular growth at 10 uM by SRB assay
# MOLT-4 = test: Cytotoxicity against human MOLT4 cells assessed as cellular growth at 10 uM by SRB assay
# MDA-MB-231 = test: Cytotoxicity against human MDA-MB-231 cells assessed as cellular growth at 10 uM by SRB assay
# DU-145 = test: Cytotoxicity against human DU145 cells assessed as cellular growth at 10 uM by SRB assay
# SK-OV-3 = test: Cytotoxicity against human SKOV3 cells assessed as cellular growth at 10 uM by SRB assay
# [1] = Cytotoxicity against human NCI-ADR-RES cells assessed as cellular growth at 10 uM by SRB assay
# SK-MEL-28 = test: Cytotoxicity against human SK-MEL-28 cells assessed as cellular growth at 10 uM by SRB assay
# T47D = test: Cytotoxicity against human T47D cells assessed as cellular growth at 10 uM by SRB assay
# CAKI-1 = test: Cytotoxicity against human Caki1 cells assessed as cellular growth at 10 uM by SRB assay
# NCI-H23 = test: Cytotoxicity against human NCI-H23 cells assessed as cellular growth at 10 uM by SRB assay
# HCT-116 = test: Cytotoxicity against human HCT116 cells assessed as cellular growth at 10 uM by SRB assay
# MCF7 = test: Cytotoxicity against human MCF7 cells assessed as cellular growth at 10 uM by SRB assay
# SF-539 = test: Cytotoxicity against human SF539 cells assessed as cellular growth at 10 uM by SRB assay
# M14 = test: Cytotoxicity against human M14 cells assessed as cellular growth at 10 uM by SRB assay
# SF-295 = test: Cytotoxicity against human SF295 cells assessed as cellular growth at 10 uM by SRB assay
# EKVX = test: Cytotoxicity against human EKVX cells assessed as cellular growth at 10 uM by SRB assay
# HCC 2998 = test: Cytotoxicity against human HCC2998 cells assessed as cellular growth at 10 uM by SRB assay
# Hs-578T = test: Cytotoxicity against human Hs578T cells assessed as cellular growth at 10 uM by SRB assay
# RXF 393 = test: Cytotoxicity against human RXF393 cells assessed as cellular growth at 10 uM by SRB assay
structure (smiles),measurement,setting,value
Cc1c(OCC(=O)c2ccccc2)ccc2c1oc(=O)c1ccccc12,Activity,CCRF-CEM,95.27%
same,Activity,SK-MEL-5,97.8%
same,Activity,MOLT-4,90.5%
same,Activity,MDA-MB-231,104.28%
same,Activity,DU-145,106.9%
same,Activity,SK-OV-3,101.55%
same,Activity,[1],100.54%
same,Activity,SK-MEL-28,113.56%
same,Activity,T47D,94.27%
same,Activity,CAKI-1,99.74%
same,Activity,NCI-H23,109.71%
same,Activity,HCT-116,107.52%
same,Activity,MCF7,102.82%
same,Activity,SF-539,104.56%
same,Activity,M14,118.87%
same,Activity,SF-295,99.54%
same,Activity,EKVX,99.55%
same,Activity,HCC 2998,117.13%
same,Activity,Hs-578T,103.5%
same,Activity,RXF 393,116.6%
